According to ChEMBL document CHEMBL5108080 (J Med Chem, 2022):
Active and inactive are the calls of the source. The calls are words filed in the database; no cut-off is given here.

Legend:
[1] = Cytotoxicity against human A549 cells incubated for 48 hrs by celltiter-glo luminescent cell viability assay; assay type: toxicity, cell-based
[2] = Selectivity index, ratio of CC50 for human A549 cells to IC50 for group 2 influenza A H7N1 pseudotyped virus infected in A549 cells; assay type: toxicity, cell-based; conditions: read-out: Ratio CC50/IC50
[3] = Selectivity index, ratio of CC50 for human A549 cells to IC50 for VSV pseudotyped virus infected in A549 cells; assay type: toxicity, cell-based; conditions: read-out: Ratio CC50/IC50
[4] = test system: Vesicular stomatitis virus; assay: Antiviral activity against VSV pseudotyped virus infected in A549 cells assessed as inhibition of viral entry incubated for 48 hrs by measuring luciferase activity by Neolite reporter gene assay; assay type: functional, organism-based; conditions: A549, 48 h
Influenza A virus [5] = assay: Antiviral activity against […] influenza A H5N1 pseudotyped virus infected in A549 cells assessed as inhibition of viral entry incubated for 48 hrs by measuring luciferase activity by Neolite reporter gene assay; assay type: functional, organism-based; conditions: H5N1, A549, 48 h
Influenza A virus [6] = assay: Antiviral activity against group 2 influenza A H7N1 pseudotyped virus infected in A549 cells assessed as inhibition of viral entry incubated for 48 hrs by measuring luciferase activity by Neolite reporter gene assay; assay type: functional, organism-based; conditions: H7N1, A549, 48 h
[7] = Selectivity index, ratio of CC50 for human A549 cells to IC50 for […] influenza A H5N1 pseudotyped virus infected in A549 cells; assay type: toxicity, cell-based; conditions: read-out: Ratio CC50/IC50
Influenza A virus [8] = assay: (§1) Antiviral activity against group 2 influenza A virus H3N2 (A/Victoria/361/2011) infected in MDCK cells infected with supernatant of compound treated virus-producing human A549 cells assessed as reduction in viral titer at 1 to 10 uM treated for 48 hrs with virus-producing human A549 cells followed by MDCK cells infection for 48 hrs by crystal violet staining based plaque assay; assay type: functional, organism-based; conditions: dose 1-10 µM, time 96.0 hrs
Influenza A virus [9] = assay: as §1, with “(A/Hong Kong-11/1968)” for “(A/Victoria/361/2011)”; assay type: functional, organism-based; conditions: dose 1-10 µM, time 96.0 hrs
Influenza A virus [10] = assay: Antiviral activity against group 2 influenza A virus H7N1 wild type; assay type: functional, organism-based

Compound | CC50 at 48 h [1] | selectivity ratio [2] | selectivity ratio [3] | IC50 [4] | IC50 (Influenza A virus [5]) | IC50 (Influenza A virus [6]) | selectivity ratio [7] | Activity (Influenza A virus [8]) | Activity (Influenza A virus [9]) | IC50 (Influenza A virus [10])
Brc1ccc(-c2nc3ncccn3c2NC2CCCCC2)c(CN2CCOCC2)c1 | 54 µM | 5 | < 1 | 60 µM | 32 µM | 9.9 µM | > 1 |  |  | 
COc1ccccc1-c1nc2ncccn2c1NC1CCCCC1 | > 100 µM | > 43 | < 1 | > 100 µM | > 100 µM | 2.3 µM | < 1 |  |  | 
Brc1ccc(-c2nc3ncccn3c2NC2CCCCC2)cc1 | > 100 µM |  |  | 42 µM | > 100 µM | 0.2 µM |  | Active | Active | 
CC(C)(C)CC(C)(C)Nc1c(-c2ccc(Br)cc2)nc2ncccn12 | 32 µM | 32 |  |  |  | 1 µM |  |  |  | 
CCCCOc1ccc(-c2nc3ncccn3c2NCC2CC2)cc1 | > 100 µM | > 4 |  |  |  | 25 µM |  |  |  | 
CCCCOc1ccc(-c2nc3ncccn3c2NC(C)C)cc1 | 68 µM | 30 |  |  |  | 2.3 µM |  |  |  | 
Brc1ccc(-c2nc3ncccn3c2Nc2ccccc2)cc1 | > 100 µM | > 67 |  |  |  | 1.5 µM |  |  |  | 
COc1ccc(-c2nc3ncccn3c2NC2CCCCC2)cc1 | > 100 µM |  |  | 100 µM | > 100 µM | 0.037 µM |  | Active | Active | 0.019 µM
CCCCOc1ccc(-c2nc3ncccn3c2NC2CCCCCC2)cc1 | 26 µM | 59 |  |  |  | 0.44 µM |  |  |  | 
CCCCOc1ccc(-c2nc3ncccn3c2NCCC)cc1 | > 100 µM | > 5 |  |  |  | 22 µM |  |  |  | 
CCCCOc1ccc(-c2nc3ncccn3c2NC(C)(C)CC(C)(C)C)cc1 | 29 µM | 13 |  |  |  | 2.3 µM |  |  |  | 
CCCCOc1ccc(-c2nc3ncccn3c2NCc2nc[nH]c2C)cc1 | 100 µM | 1 |  |  |  | 100 µM |  |  |  | 
COCCOc1ccc(-c2nc3ncccn3c2Nc2ccccc2)cc1 | > 100 µM | > 19 |  |  |  | 5.2 µM |  |  |  | 
Oc1ccccc1-c1nc2ncccn2c1NC1CCCCC1 | > 100 µM | > 10 |  |  |  | 10 µM |  |  |  | 
CCCCOc1ccc(-c2nc3ncccn3c2NC2CCCCC2)cc1 | 52 µM | 78 | 2 | 36 µM | 84 µM | 0.67 µM | 1 |  |  | 
CCCCOc1ccc(-c2nc3ncccn3c2Nc2ccccc2)cc1 | 100 µM | 1 |  |  |  | 100 µM |  |  |  | 
CCCCOc1ccc(-c2c(NC(C)(C)CC(C)(C)C)nc3ncccn23)cc1 | 49 µM | 6 |  |  |  | 8.1 µM |  |  |  | 
COCCCCOc1ccc(-c2nc3ncccn3c2NC2CCCCC2)cc1 | 100 µM | 400 | 2 | 40 µM | 92 µM | 0.25 µM | 1 | Active | Active | 
CCCCOc1ccc(-c2nc3ncccn3c2NCc2c[nH]cn2)cc1 | > 100 µM | > 3 |  |  |  | 38 µM |  |  |  | 
CC(C)(C)CC(C)(C)Nc1nc2ncccn2c1-c1ccc(Br)cc1 | > 100 µM | > 12 |  |  |  | 8.6 µM |  |  |  | 
CCOC(=O)CCCOc1ccc(-c2nc3ncccn3c2NC2CCCCC2)cc1 | > 100 µM | > 560 |  |  |  | 1.8 µM |  |  |  | 
CN(c1c(-c2ccc(F)cc2)nc2ncccn12)C1CCCCC1 | > 100 µM | > 77 |  |  |  | 1.3 µM |  |  |  | 
Nc1nc2ncccn2c1-c1ccc(Br)cc1 | > 100 µM | > 1 |  |  |  | 100 µM |  |  |  | 
CCCCOc1ccc(-c2nc3ncccn3c2N2C(=O)c3cccc(O)c3C2=O)cc1 | > 100 µM | > 6.6 |  |  |  | 15 µM |  |  |  | 
c1cnc2nc(-c3ccc(OC4CCCC4)cc3)c(NC3CCCCC3)n2c1 | 39 µM | 57 |  |  |  | 0.68 µM |  |  |  | 
Clc1ccc(-c2nc3ncccn3c2NC2CCCCC2)cc1 | > 100 µM | > 670 | > 2 | 36 µM | > 100 µM | 0.15 µM | > 1 | Active | Active | 
Nc1c(-c2ccc(Br)cc2)nc2ncccn12 | > 100 µM | > 1 |  |  |  | 100 µM |  |  |  | 

Compound | CC50 at 48 h [1] | selectivity ratio [2] | selectivity ratio [3] | IC50 [4] | IC50 (Influenza A virus [5]) | IC50 (Influenza A virus [6]) | selectivity ratio [7] | Activity (Influenza A virus [8]) | Activity (Influenza A virus [9]) | IC50 (Influenza A virus [10])
CCCCOc1ccc(-c2nc3ncccn3c2NCc2ccc(OC)cc2)cc1 | 55 µM | 4 |  |  |  | 14 µM |  |  |  | 
CCCCOc1ccc(-c2nc3ncccn3c2NC2CCCCC2)c(C)c1 | 32 µM | 150 |  |  |  | 0.22 µM |  |  |  | 
COCCOc1ccc(-c2nc3ncccn3c2NC2CCCCC2)cc1 | > 100 µM | > 1300 |  |  |  | 0.08 µM |  |  |  | 
Fc1ccc(-c2nc3ncccn3c2NC2CCCCC2)cc1 | 100 µM |  |  | 53 µM | 46 µM | 0.023 µM |  | Active | Active | 
Cc1cc(C)n2c(Nc3ccc4c(c3)OCCO4)c(-c3cccc(Br)c3)nc2n1 | > 100 µM | > 400 |  |  |  | 0.25 µM |  |  |  | 
CCCCOc1ccc(-c2nc3ncccn3c2Nc2ccccc2)c(C)c1 | 23 µM | 5.1 |  |  |  | 4.5 µM |  |  |  | 
O=C(O)CCCOc1ccc(-c2nc3ncccn3c2NC2CCCCC2)cc1 | > 100 µM | > 560 |  |  |  | 0.18 µM |  |  |  | 
Cc1cc(C)n2c(NC3CCCCC3)c(-c3ccc(Br)cc3)nc2n1 | 32 µM | 51 |  |  |  | 0.36 µM |  |  |  | 
Cc1cc(Br)ccc1-c1nc2ncccn2c1NC1CCCCC1 | 45 µM |  |  | 39 µM | 45 µM | 0.17 µM |  | Active | Active | 
CCNC(=O)CCCOc1ccc(-c2nc3ncccn3c2NC2CCCCC2)cc1 | > 100 µM | > 1600 |  |  |  | 0.064 µM |  |  |  | 
CCCCOc1ccc(-c2nc3ncccn3c2Nc2ccc(F)cc2)cc1 | > 100 µM | > 67 |  |  |  | 1.5 µM |  |  |  | 
FC(F)(F)c1cc(Br)ccc1-c1nc2ncccn2c1NC1CCCCC1 | 25 µM | 18 | 1 | 24 µM | 20 µM | 1.4 µM | 1 | Active | Active | 
Fc1ccc(COc2ccc(-c3nc4ncccn4c3NC3CCCCC3)cc2)cc1 | 24 µM | 92 |  |  |  | 0.26 µM |  |  |  | 
CCOC(=O)C1=C[C@@H](OC(CC)CC)[C@H](NC(C)=O)[C@@H](N)C1 [OSELTAMIVIR] |  |  |  |  |  |  |  | Active | Active | 
CCCCOc1ccc(-c2nc3ncccn3c2N)cc1 | > 100 µM | > 1 |  |  |  | 100 µM |  |  |  | 
Oc1cccc(-c2nc3ncccn3c2NC2CCCCC2)c1 | 100 µM | 10 |  |  |  | 10 µM |  |  |  | 
CCCCOc1ccc(-c2nc3ncccn3c2NCc2ccco2)cc1 | 78 µM | 10 |  |  |  | 7.9 µM |  |  |  | 
COc1ccccc1-c1nc2ncccn2c1N(C(C)=O)C1CCCCC1 | > 100 µM | > 1 |  |  |  | > 100 µM |  |  |  | 
CCCCOc1ccc(-c2nc3ncccn3c2NCc2ccccn2)cc1 | > 100 µM | > 6 |  |  |  | 16 µM |  |  |  | 
CCCCOc1ccc(-c2nc3ncccn3c2NCC2CCCCC2)cc1 | 35 µM | 110 |  |  |  | 0.31 µM |  |  |  | 
c1ccc(-c2nc3ncccn3c2NC2CCCCC2)cc1 | 100 µM |  |  | 74 µM | 46 µM | 0.66 µM |  | Active | Active | 
CCCCOc1ccc(-c2c(N)nc3ncccn23)cc1 | > 100 µM | > 1.7 |  |  |  | 58 µM |  |  |  | 
CCCCOc1ccc(-c2nc3ncccn3c2NC2CCCC2)cc1 | 40 µM | 27 |  |  |  | 1.5 µM |  |  |  | 
CCCCOc1ccc(-c2nc3ncccn3c2NCc2ccc3ccccc3c2)cc1 | 33 µM | 6 |  |  |  | 6 µM |  |  |  | 
Oc1ccc(-c2nc3ncccn3c2NC2CCCCC2)cc1 | > 100 µM |  |  | 65 µM | 36 µM | 0.052 µM |  | Active | Active | 
Cc1cc(Br)ccc1-c1nc2ncccn2c1Nc1ccccc1 | 40 µM | 18 | 1 | 100 µM | > 100 µM | 2.2 µM | < 1 |  |  | 
